Laboratory results from patent US20050255071A1, “Preparation having improved therapeutic breadth comprising nucleotide synthesis inhibitors” (Aventis Pharma Deutschland GmbH, priority 1998, published 2005).
Read-outs that look alike come from different tables or passages of the source.

Key:
[1] = test system: Adjuvant-Induced Arthritis; format: in vivo, rats
Description: Adjuvant-Induced Arthritis, Modification According to Perper (Proc. Soc. Exp. Biol. Med. 137, 506 (1971)).
(§1) The experimental animals used were male rats of a Lewis strain (Moellegard, Denmark) having a body weight of from 160 to 210 g. On the 1st day, the animals were injected subcutaneously, into the tail root, with complete Freund's adjuvant containing a Mycobacterium butyricum suspension in heavy paraffin oil (Difco, 6 mg/kg in paraffin oil, Merck). The compounds N-(4-trifluoromethylphenyl)-2-cyano-3-hydroxycrotonamide and colestyramine were suspended in carboxymethylcellulose (1% in water), and administered orally. The compounds were administered once daily from the 1st to the 17th day of the experiment; the paw volume and arthritis index were then determined on the 18th day.
The severity of the disorder was determined by measuring the paw volume of both hind paws. The measurement was carried out by means of the water displacement method using a 2060 Plethys monitor (Rhema-Labortechnik, Hofheim, Germany). The arthritis index was furthermore determined in the 18th day after injection.
Determination of the arthritis index was scored as follows:
On the first day, animals of an “arthritis control” control group were given a subcutaneous injection, into the tail root, with complete Freund's adjuvant but were given only the solvent (i.e., 1% cabrboxymethylcellulose in water). Six animals in each case were used per dose and in the control group. Untreated animals were employed as a further “healthy control” control group. The activity criteria used were the reduction of the increase in the paw volume and the decrease in the arthritis index, compared with the untreated control group, and the weight of the animals, in each case in percent and based on the arthritis control.
In the following table, N-(4-trifluoromethylphenyl)-2-cyano-3-hydroxycrotonamide is compound 1. Colestyramine was administered 4 hours later than compound 1.

[2] = Alkaline phosphatase and amylase in adjuvant-arthritis rats (Example 3); settings: rat, in vivo, po, 25 mg/kg
Description: as §1
The experimental conditions were analogous to Example 1. The actions of compound 1 and colestyramine on the amount on the of alkaline phosphatase (AP) and amylase were determined. Colestyramine was administered 4 hours later than compound 1.

[3] = GOT, GPT, RBC, HGB, HCT in adjuvant-arthritis rats (Example 2); settings: rat, in vivo, po, 25 mg/kg
Description: as §1
The experimental conditions were analogous to Example 1. The actions of compound 1 and colestyramine on the amount of red blood corpuscles (RBC), hemoglobin content (HGB), hematocrit (HCT), amount of glutamate oxlacetate transaminase (GOT), and glutamate pyruvate transaminase (GPT) were determined. Colestyramine was administered 4 hours later than compound 1.

[4] = Blood level and duration of action of compound 1 after time-displaced colestyramine; format: in vivo; settings: with time-displaced administration of colestyramine (2 hours or 4 hours after compound 1)
Source text: The preparation according to the invention can also include compositions or combination packs in which the constituents are placed next to one another and can therefore be used simultaneously, separately, or sequentially on one and the same human or animal body. The sequential administration of a compound of formula (I) and/or (II) before the administration of a compound, which essentially prevents the enterohepatic circulation of a compound of formula (I) and (II), is preferred. To this end, for example, N-(4-trifluoromethylphenyl)-2-cyano-3-hydroxycrotonamide (called compound 1 in the following) is administered first. Colestyramine, which essentially prevents the enterohepatic circulation of compound 1, is administered with a displacement in time, i.e., 2 hours or 4 hours after the administration of compound 1. Because of the time-displaced administration of compound 1 relative to colestyramine, compound 1 is initially absorbed unhindered from the digestive tract. After the administration of colestyramine, which is not absorbed systemically, compound 1 excreted via the bowel is bound to colestyramine, and cannot therefore be reabsorbed again; as a result, an interruption to the enterohepatic circulation is brought about.

[5] = Example 1, 2.5 mg/kg of live weight oral once daily day 1-17, day 18
[6] = Example 1, 7.5 mg/kg of live weight oral once daily day 1-17, day 18
[7] = Example 1, 25 mg/kg of live weight oral once daily day 1-17, day 18
[8] = Example 2, 25 mg/kg of live weight oral
[9] = Example 3, 25 mg/kg of live weight oral

- AP [2]: 114.8 U/I
- Amylase [2]: 1306.5 U/I
- GOT [3]: 85.3 U/I
- GPT [3]: 25.1 U/I
- HCT [3]: 18.7%
- HGB [3]: 6.1 g/dL
- RBC [3]: 3.8 *10^6/mm^3
- blood level of compound 1 [4]: drastically reduced
- duration of action [4]: drastically reduced
SMILES: C/C(O)=C(\C#N)C(=O)Nc1ccc(C(F)(F)F)cc1 [Compound 1, N-(4-trifluoromethylphenyl)-2-cyano-3-hydroxycrotonamide]
- desired actions on the immune system ([1]; 25 mg/kg/day of compound 1, with administration of colestyramine): retention
- Arthritis index [1, 5]: −77%
- Paw Volume [1, 5]: −63%
- Arthritis index [1, 6]: −92%
- Paw Volume [1, 6]: −83%
- Arthritis index [1, 7]: −100%
- Paw Volume [1, 7]: −92%
- Arthritis index [1, 8]: −100%
- Paw Volume [1, 8]: −92%
- Arthritis index [1, 9]: −100%
- Paw Volume [1, 9]: −110%
- activity in adjuvant arthritis ([1]; approximately 2.5 mg/kg/day of compound 1, with administration of colestyramine): not reduced
